# Test results: ChEMBL document CHEMBL2424635, “Discovery of novel histidine-derived lipo-amino acids: applied in the synthesis of ultra-short antimicrobial peptidomimetics having potent antimicrobial activity, salt resistance and protease stability” (Eur J Med Chem, 2013)
# The source made the active and inactive calls. No cut-off for these calls is given here.
# Key:
# [1] = system: Staphylococcus epidermidis; experiment: Antibacterial activity against Staphylococcus epidermidis KCTC 1917 assessed as growth inhibition after 18 to 20 hrs by broth microdilution method in presence of NaCl; format: functional
# Salmonella typhimurium [2] = experiment: Antibacterial activity against Salmonella typhimurium KCTC 1926 assessed as growth inhibition after 18 to 20 hrs by broth microdilution method in presence of NaCl; format: functional, Salmonella enterica subsp. enterica serovar Typhimurium; details: Salmonella enterica
# Escherichia coli [3] = experiment: Antibacterial activity against Escherichia coli KCTC 1682 assessed as growth inhibition after 18 to 20 hrs by broth microdilution method; format: functional
# Salmonella typhimurium [4] = experiment: Antibacterial activity against Salmonella typhimurium KCTC 1926 assessed as growth inhibition after 18 to 20 hrs by broth microdilution method; format: functional, Salmonella enterica subsp. enterica serovar Typhimurium; details: Salmonella enterica
# [5] = Hemolytic activity in human RBC assessed as hemoglobin release after 1 hr; format: ADME, cell-based, Erythrocyte; details: red blood cells (RBC)
# Staphylococcus aureus [6] = experiment: Antibacterial activity against methicillin-resistant Staphylococcus aureus CCARM 3089 assessed as growth inhibition after 18 to 20 hrs by broth microdilution method; format: functional
# Escherichia coli [7] = experiment: Antibacterial activity against Escherichia coli KCTC 1682 assessed as growth inhibition at 50 ug/ml after 18 to 20 hrs by broth microdilution method in presence of trypsin; format: functional, organism-based
# Staphylococcus aureus [8] = experiment: Antibacterial activity against methicillin-resistant Staphylococcus aureus CCARM 3090 assessed as growth inhibition after 18 to 20 hrs by broth microdilution method; format: functional
# Pseudomonas aeruginosa [9] = experiment: Antibacterial activity against Pseudomonas aeruginosa KCTC 1637 assessed as growth inhibition after 18 to 20 hrs by broth microdilution method; format: functional
# Pseudomonas aeruginosa [10] = experiment: Antibacterial activity against Pseudomonas aeruginosa KCTC 1637 assessed as growth inhibition after 18 to 20 hrs by broth microdilution method in presence of NaCl; format: functional
# Staphylococcus aureus [11] = experiment: Antibacterial activity against Staphylococcus aureus KCTC 1621 assessed as growth inhibition after 18 to 20 hrs by broth microdilution method; format: functional
# Staphylococcus aureus [12] = experiment: Antibacterial activity against Staphylococcus aureus KCTC 1621 assessed as growth inhibition at 50 ug/ml after 18 to 20 hrs by broth microdilution method in presence of trypsin; format: functional, organism-based
# Staphylococcus aureus [13] = experiment: Antibacterial activity against methicillin-resistant Staphylococcus aureus CCARM 3095 assessed as growth inhibition after 18 to 20 hrs by broth microdilution method; format: functional
# Bacillus subtilis [14] = experiment: Antibacterial activity against Bacillus subtilis KCTC 3068 assessed as growth inhibition after 18 to 20 hrs by broth microdilution method; format: functional
# Bacillus subtilis [15] = experiment: Antibacterial activity against Bacillus subtilis KCTC 3068 assessed as growth inhibition after 18 to 20 hrs by broth microdilution method in presence of NaCl; format: functional
# [16] = system: Staphylococcus epidermidis; experiment: Antibacterial activity against Staphylococcus epidermidis KCTC 1917 assessed as growth inhibition after 18 to 20 hrs by broth microdilution method; format: functional
# Escherichia coli [17] = experiment: Antibacterial activity against Escherichia coli KCTC 1682 assessed as growth inhibition after 18 to 20 hrs by broth microdilution method in presence of NaCl; format: functional
# Staphylococcus aureus [18] = experiment: Antibacterial activity against Staphylococcus aureus KCTC 1621 assessed as growth inhibition after 18 to 20 hrs by broth microdilution method in presence of NaCl; format: functional
# Staphylococcus aureus [19] = experiment: Antibacterial activity against Staphylococcus aureus KCTC 1621 assessed as disruption of cellular structure at 3 x MIC after 1 hr by transmission electron microscopic analysis; format: functional, organism-based
# Escherichia coli [20] = experiment: Antibacterial activity against Escherichia coli KCTC 1682 assessed as disruption of cellular structure at 3 x MIC after 1 hr by transmission electron microscopic analysis; format: functional, organism-based
Compound,MIC [1] [µg/mL],MIC (Salmonella typhimurium [2]) [µg/mL],MIC (Escherichia coli [3]) [µg/mL],MIC (Salmonella typhimurium [4]) [µg/mL],HC50 at 1 h [5] [µg/mL],MIC (Staphylococcus aureus [6]) [µg/mL],growth inhibition (GI) (Escherichia coli [7]),MIC (Staphylococcus aureus [8]) [µg/mL],MIC (Pseudomonas aeruginosa [9]) [µg/mL],MIC (Pseudomonas aeruginosa [10]) [µg/mL],MIC (Staphylococcus aureus [11]) [µg/mL],growth inhibition (GI) (Staphylococcus aureus [12]),MIC (Staphylococcus aureus [13]) [µg/mL],MIC (Bacillus subtilis [14]) [µg/mL],MIC (Bacillus subtilis [15]) [µg/mL],MIC [16] [µg/mL],MIC (Escherichia coli [17]) [µg/mL],MIC (Staphylococcus aureus [18]) [µg/mL],Activity (Staphylococcus aureus [19]),Activity (Escherichia coli [20])
CC[C@H](C)[C@H](NC(=O)[C@H](CCCCN)NC(=O)[C@H](CCC(=O)O)NC(=O)[C@H](CCCCN)NC(=O)[C@H](CO)NC(=O)[C@H](CCCCN)NC(=O)[C@H](CCCNC(=N)N)NC(=O)[C@H](Cc1ccccc1)NC(=O)[C@H](Cc1ccccc1)NC(=O)[C@H](CC(=O)O)NC(=O)CNC(=O)[C@H](CC(C)C)NC(=O)[C@@H](N)CC(C)C)C(=O)NCC(=O)N[C@@H](CCCCN)C(=O)N[C@@H](CCC(=O)O)C(=O)N[C@@H](Cc1ccccc1)C(=O)N[C@@H](CCCCN)C(=O)N[C@@H](CCCNC(=N)N)C(=O)N[C@H](C(=O)N[C@H](C(=O)N[C@@H](CCC(N)=O)C(=O)N[C@@H](CCCNC(=N)N)C(=O)N[C@H](C(=O)N[C@@H](CCCCN)C(=O)N[C@@H](CC(=O)O)C(=O)N[C@@H](Cc1ccccc1)C(=O)N[C@@H](CC(C)C)C(=O)N[C@@H](CCCNC(=N)N)C(=O)N[C@@H](CC(N)=O)C(=O)N[C@@H](CC(C)C)C(=O)N[C@H](C(=O)N1CCC[C@H]1C(=O)N[C@@H](CCCNC(=N)N)C(=O)N[C@H](C(=O)N[C@@H](CCC(=O)O)C(=O)N[C@@H](CO)C(N)=O)[C@@H](C)O)C(C)C)[C@@H](C)CC)C(C)C)[C@@H](C)CC,> 64,32,32,16,> 256,> 32,inactive,> 32,64,64,32,inactive,> 32,32,16,16,16,> 64,–,–
CCCCCCCCCCn1c[n+](CCCCCCCCCC)cc1C[C@H](N)C(=O)N[C@@H](CCCNC(=N)N)C(N)=O,2,8,4,4,49,2,Active,4,8,8,2,Active,2,2,2,2,8,2,–,–
CCCCCCCCCCn1cncc1C[C@H](NC(=O)[C@@H](N)CCCNC(=N)N)C(=O)N[C@@H](CCCNC(=N)N)C(N)=O,32,> 64,16,32,> 256,8,Active,8,16,16,4,Active,8,2,8,2,> 64,32,–,–
CCCCCCCCCCn1c[n+](CCCCCCCCCC)cc1C[C@H](NC(=O)[C@@H](N)CCCNC(=N)N)C(=O)N[C@@H](CCCNC(=N)N)C(N)=O,4,16,8,8,121,8,Active,4,8,8,4,Active,4,4,4,4,16,4,Active,Active
CCCCCCC/C=C/Cn1cncc1C[C@H](NC(=O)[C@@H](N)CCCNC(=N)N)C(=O)N[C@@H](CCCNC(=N)N)C(N)=O,64,64,32,64,> 256,16,–,16,32,64,8,–,16,4,16,4,> 64,32,–,–
CCCCCCCCCCCCCCn1c[n+](CCCCCCCCCCCCCC)cc1C[C@H](NC(=O)[C@@H](N)CCCNC(=N)N)C(=O)N[C@@H](CCCNC(=N)N)C(N)=O,> 64,> 64,> 64,> 64,> 256,> 64,–,> 64,> 64,> 64,> 64,–,> 64,> 64,> 64,> 64,> 64,> 64,–,–
CC[C@H](C)[C@H](NC(=O)CN)C(=O)NCC(=O)N[C@@H](C)C(=O)N[C@H](C(=O)N[C@@H](CC(C)C)C(=O)N[C@@H](CCCCN)C(=O)N[C@H](C(=O)N[C@@H](CC(C)C)C(=O)N[C@H](C(=O)N[C@H](C(=O)NCC(=O)N[C@@H](CC(C)C)C(=O)N1CCC[C@H]1C(=O)N[C@@H](C)C(=O)N[C@@H](CC(C)C)C(=O)N[C@H](C(=O)N[C@@H](CO)C(=O)N[C@@H](Cc1c[nH]c2ccccc12)C(=O)N[C@H](C(=O)N[C@@H](CCCCN)C(=O)N[C@@H](CCCNC(=N)N)C(=O)N[C@@H](CCCCN)C(=O)N[C@@H](CCCNC(=N)N)C(=O)N[C@@H](CCC(N)=O)C(=O)N[C@@H](CCC(N)=O)C(N)=O)[C@@H](C)CC)[C@@H](C)CC)[C@@H](C)O)[C@@H](C)O)C(C)C)C(C)C,–,–,–,–,–,–,inactive,–,–,–,–,inactive,–,–,–,–,–,–,–,–
